Test results from ChEMBL document CHEMBL1201862, “PubChem BioAssay data set” (2004).
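Protocol summary: plate cells (96-well), add compound at 5 concentrations, incubate 48 h, interpolate endpoints linearly. Here, GI50 denotes the concentration required for 50% inhibition of growth.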 Activity calls are given as the source filed them. Rule as the data show it: active = GI50 up to about 1.1 µM and inactive = higher.

Assays:
Assay in all cases: DTP human tumour cell line panel, 48 h
[1] = system: 786-0
[2] = system: A549
[3] = system: ACHN
[4] = system: BT-549
[5] = system: CAKI-1
[6] = system: CCRF-CEM
[7] = system: COLO 205
[8] = system: DU-145
[9] = system: EKVX
[10] = system: HCC 2998
[11] = system: HCT-116
[12] = system: HCT-15
[13] = system: HL-60
[14] = system: HOP-62
[15] = system: HOP-92
[16] = system: HT-29
[17] = system: IGROV-1
[18] = system: K562
[19] = system: KM12
[20] = system: LOX IMVI
[21] = system: M14
[22] = system: MCF7
[23] = system: MDA-MB-231
[24] = system: MDA-MB-435
[25] = system: MDA-N
[26] = system: MOLT-4
[27] = system: Malme-3M
[28] = system: NCI-H226
[29] = system: NCI-H23
[30] = system: NCI-H460
[31] = system: NCI-H522
[32] = system: NCI/ADR-RES
[33] = system: OVCAR-3
[34] = system: OVCAR-4
[35] = system: OVCAR-5
[36] = system: OVCAR-8
[37] = system: PC-3
[38] = system: RPMI-8226
[39] = system: SF-268
[40] = system: SF-295
[41] = system: SF-539
[42] = system: SK-MEL-2
[43] = system: SK-MEL-5
[44] = system: SK-OV-3
[45] = system: SN12C
[46] = system: SNB-19
[47] = system: SNB-75
[48] = system: SW-620
[49] = system: T47D
[50] = system: TK-10
[51] = system: U-251
[52] = system: UACC-257
[53] = system: UACC-62
[54] = system: A498
[55] = system: Hs-578T
[56] = system: RXF 393
[57] = system: SK-MEL-28
[58] = system: UO-31

Measured: GI50

O=C1C(Cl)=C(NCCc2ccc(O)cc2)C(=O)c2c(O)ccc(O)c21
inactive: [1] 9.46 µM | [2] > 10 µM | [3] > 10 µM | [4] > 10 µM | [5] > 10 µM | [6] 4.34 µM | [7] > 10 µM | [8] > 10 µM | [9] > 10 µM | [10] > 10 µM | [11] 8.2 µM | [13] 5.42 µM | [14] 6.56 µM | [15] > 10 µM | [16] 4.27 µM | [17] > 10 µM | [18] > 10 µM | [19] 7.28 µM | [20] 7.66 µM | [21] > 10 µM | [22] 4.13 µM | [23] > 10 µM | [24] 4.36 µM | [25] > 10 µM | [26] > 10 µM | [27] 1.88 µM | [28] > 10 µM | [29] > 10 µM | [30] 7.46 µM | [31] > 10 µM | [32] 3.76 µM | [33] 4.8 µM | [34] > 10 µM | [35] > 10 µM | [36] > 10 µM | [37] > 10 µM | [38] > 10 µM | [39] 9.12 µM | [40] 9.82 µM | [41] 6.58 µM | [42] 8.28 µM | [43] 3.72 µM | [44] > 10 µM | [45] > 10 µM | [46] > 10 µM | [47] > 10 µM | [48] > 10 µM | [49] > 10 µM | [50] > 10 µM | [51] > 10 µM | [52] 4.74 µM | [53] 3.74 µM
> 10 µM: [12]

COc1cc(C2SCC(=O)N2NC(=O)c2ccc(NC(C)=O)cc2)cc(OC)c1OC (centres undefined)
> 100 µM: [12]
inactive: [1] > 100 µM | [54] > 100 µM | [2] > 100 µM | [3] > 100 µM | [4] > 100 µM | [7] > 100 µM | [8] > 100 µM | [9] > 100 µM | [10] > 100 µM | [11] > 100 µM | [13] > 100 µM | [14] > 100 µM | [15] > 100 µM | [16] > 100 µM | [55] > 100 µM | [17] > 100 µM | [18] 35.8 µM | [19] > 100 µM | [21] > 100 µM | [22] > 100 µM | [23] > 100 µM | [24] > 100 µM | [26] > 100 µM | [28] > 100 µM | [29] > 100 µM | [30] > 100 µM | [32] > 100 µM | [33] > 100 µM | [34] > 100 µM | [35] > 100 µM | [36] > 100 µM | [38] > 100 µM | [56] > 100 µM | [39] > 100 µM | [40] > 100 µM | [41] > 100 µM | [57] > 100 µM | [42] > 100 µM | [43] > 100 µM | [44] > 100 µM | [45] > 100 µM | [46] > 100 µM | [47] > 100 µM | [48] > 100 µM | [49] > 100 µM | [50] > 100 µM | [51] > 100 µM | [52] > 100 µM | [53] > 100 µM | [58] > 100 µM
